Measured values as given in patent publication EP0997459A1, “Intermediates for preparing retroviral protease inhibiting compounds” (priority 1990, dated 1992).
Read-outs that look alike come from different tables or passages of the source.

Tests used:
[1] = biological target: HIV-1 protease (Human immunodeficiency virus type 1 group M subtype B, UniProt P04585); assay: Fluorogenic assay for screening inhibitors of HIV protease; assay type: biochemical; details: read-out: Percent Inhibition
Protocol: Fluorogenic Assay for Screening Inhibitors of HIV Protease
The inhibitory potency of the compounds of the invention can be determined by the following method.
A compound of the invention is dissolved in DMSO and a small aliquot further diluted with DMSO to 100 times the final concentration desired for testing. The reaction is carried out in a 6 X 50 mm tube in a total volume of 300 microliters. The final concentrations of the components in the reaction buffer are: 125 mM sodium acetate, 1 M sodium chloride, 5 mM dithiothreitol, 0.5 mg/ml bovine serum albumin, 1.3 µM fluorogenic substrate, 2% (v/v) dimethylsulfoxide, pH 4.5. After addition of inhibitor, the reaction mixture is placed in the fluorometer cell holder and incubated at 30°C for several minutes. The reaction is initiated by the addition of a small aliquot of cold HIV protease. The fluorescence intensity (excitation 340 nm, emmision 490 nM) is recorded as a function of time. The reaction rate is determined for the first six to eight minutes. The observed rate is directly proportional to the moles of substrate cleaved per unit time. The percent inhibition is 100 X (1 - (rate in presence of inhibitor)/(rate in absence of inhibitor)).

[2] = tested on: HIV-13B; assay: Antiviral activity: inhibition of the cytopathic effect of HIV in MT4 cells (procedure of Pauwels et al.); assay type: cell-based; details: Human immunodeficiency virus 1, MT4
Description: (§1) The anti-HIV activity of the compounds of the invention can be determined in MT4 cells according to the procedure of Pauwels et. al. (J. Virol. Methods 1988, 20, 309).

[3] = Cell viability (LC50) in MT4 cells in the antiviral test; assay type: cell-based; details: human, concentration at which 50% of the cells remain viable
Description: as §1

[4] = Inhibitor Concentration 0.5 nanomolar

Structure (SMILES) | IC50 [2] | further results
CC(C)[C@H](NC(=O)N(C)Cc1ccccn1)C(=O)N[C@@H](Cc1ccccc1)[C@@H](O)C[C@H](Cc1ccccc1)NC(=O)OCc1cccnc1 [Example 37C, (2S,3S,5S)-2-(N-(N-((N-Methyl-N-((2-pyridinyl)-methyl)amino)carbonyl)valinyl)amino)-5-(N-((3-pyridinyl)methoxycarbonyl)amino)-1,6-diphenyl-3-hydroxyhexane] | 840 to 1440 nM | inhibition at 0.001 µM [1]: 61%
CC(C)[C@H](NC(=O)N(C)Cc1ccccn1)C(=O)N[C@@H](Cc1ccccc1)C[C@H](O)[C@H](Cc1ccccc1)NC(=O)OCc1cccnc1 [Example 38, (2S,3S,5S)-5-(N-(N-((N-Methyl-N-((2-pyridinyl)methyl)amino)carbonyl)valinyl)amino)-2-(N-((3-pyridinyl)methoxycarbonyl)amino)-1,6-diphenyl-3-hydroxyhexane] | 550 to 610 nM | 
CC(C)[C@H](NC(=O)OCc1ccccn1)C(=O)N[C@@H](Cc1ccccc1)[C@@H](O)C[C@H](Cc1ccccc1)NC(=O)OCc1cccnc1 [Example 39, (2S,3S,5S)-2-(N-(N-((2-Pyridinyl)methoxycarbonyl)valinyl)amino)-5-(N-((3-pyridinyl)methoxycarbonyl)amino)-1,6-diphenyl-3-hydroxyhexane] | 130 to 250 nM | 
CC(C)[C@H](NC(=O)OCc1ccccn1)C(=O)N[C@@H](Cc1ccccc1)C[C@H](O)[C@H](Cc1ccccc1)NC(=O)OCc1cccnc1 [Example 40, (2S,3S,5S)-5-(N-(N-((2-Pyridinyl)methoxycarbonyl)valinyl)amino)-2-(N-((3-pyridinyl)methoxycarbonyl)amino)-1,6-diphenyl-3-hydroxyhexane] | 230 to 550 nM | inhibition at 0.0005 µM [1]: 61%; CC50 [3]: 64000 nM
CC[C@H](C)[C@H](NC(=O)N(C)Cc1ccccn1)C(=O)N[C@@H](Cc1ccccc1)C[C@H](O)[C@H](Cc1ccccc1)NC(=O)OCc1cccnc1 [Example 171] | 380 to 550 nM | inhibition at 0.0005 µM [1, 4]: 62%
O=C(N[C@@H](Cc1ccccc1)C[C@H](O)[C@H](Cc1ccccc1)NC(=O)OCc1cccnc1)OCc1cccnc1 [Example 174] | 140 to 230 nM | inhibition at 0.0005 µM [1, 4]: 51%
Cc1cccc(COC(=O)N[C@H](C(=O)N[C@@H](Cc2ccccc2)C[C@H](O)[C@H](Cc2ccccc2)NC(=O)OCc2cccnc2)C(C)C)n1 [Example 290, (2S,3S,5S)-2-(N-[(pyridin-3-yl)methoxycarbonyl]amino)-5-(N-[(6-methylpyridin-2-yl)methoxycarbonyl-valyl]amino)-1,6-diphenyl-3-hydroxyhexane] | 26 to 75 nM | 
Cc1cccc(CN(C)C(=O)N[C@H](C(=O)N[C@@H](Cc2ccccc2)[C@@H](O)C[C@H](Cc2ccccc2)NC(=O)OCc2cccnc2)C(C)C)n1 [Example 297, (2S,3S-5S)-2-(N-(N-((N-Methyl-N-((6-methyl-2-pyridinyl)methyl)amino)carbonyl)valinyl)amino)-5-(N-((3-pyridinyl)-methoxycarbonyl)amino)-1,6-diphenyl-3-hydroxyhexane] | 310 to 350 nM | 
Cc1cccc(CN(C)C(=O)N[C@H](C(=O)N[C@@H](Cc2ccccc2)C[C@H](O)[C@H](Cc2ccccc2)NC(=O)OCc2cccnc2)C(C)C)n1 [Example 298] | 220 to 290 nM | 
Cc1cccc(COC(=O)N[C@H](C(=O)N[C@@H](Cc2ccccc2)[C@@H](O)C(F)(F)[C@H](Cc2ccccc2)NC(=O)[C@@H](NC(=O)OCc2cccc(C)n2)C(C)C)C(C)C)n1 [Example 305] | 5 to 17 nM | inhibition at 0.0005 µM [1, 4]: 91%
Cc1cccc(COC(=O)N[C@H](C(=O)N[C@@H](Cc2ccccc2)C(=O)C(F)(F)[C@H](Cc2ccccc2)NC(=O)[C@@H](NC(=O)OCc2cccc(C)n2)C(C)C)C(C)C)n1 [Example 306] | 7 to 19 nM | inhibition at 0.0005 µM [1, 4]: 88%
Cc1cnc(COC(=O)N[C@H](C(=O)N[C@@H](Cc2ccccc2)[C@@H](O)C[C@H](Cc2ccccc2)NC(=O)OCc2cccnc2)C(C)C)cn1 [Example 307] | 160 to 260 nM | 
Cc1cnc(COC(=O)N[C@H](C(=O)N[C@@H](Cc2ccccc2)C[C@H](O)[C@H](Cc2ccccc2)NC(=O)OCc2cccnc2)C(C)C)cn1 [Example 308] | 77 to 124 nM | 
COc1ccc(COC(=O)N[C@H](C(=O)N[C@@H](Cc2ccccc2)C[C@H](O)[C@H](Cc2ccccc2)NC(=O)OCc2cccnc2)C(C)C)cn1 [Example 310] | 13 to 25 nM | 
COc1ccc(CN(C)C(=O)N[C@H](C(=O)N[C@@H](Cc2ccccc2)[C@@H](O)C[C@H](Cc2ccccc2)NC(=O)OCc2cccnc2)C(C)C)cn1 [Example 311, (2S,3S,5S)-2-(N-(N-((N-Methyl-N-((6-methoxy-3-pyridinyl)methyl)amino)carbonyl)valinyl)amino)-5-(N-((3-pyridinyl)methoxycarbonyl)amino)-1,6-diphenyl-3-hydroxyhexane] | 58 to 67 nM | 
COc1ccc(CN(C)C(=O)N[C@H](C(=O)N[C@@H](Cc2ccccc2)C[C@H](O)[C@H](Cc2ccccc2)NC(=O)OCc2cccnc2)C(C)C)cn1 [Example 312] | 58 to 77 nM | 
Cc1cncc(CN(C)C(=O)N[C@H](C(=O)N[C@@H](Cc2ccccc2)[C@@H](O)C[C@H](Cc2ccccc2)NC(=O)OCc2cccnc2)C(C)C)c1 [Example 313, (2S,3S,5S)-2-(N-(N-((N-Methyl-N-((5-methyl-3-pyridinyl)methyl)amino)carbonyl)valinyl)amino)-5-(N-((3-pyridinyl)methoxycarbonyl)amino)-1,6-diphenyl-3-hydroxyhexane] | 460 to 500 nM | 
Cc1cncc(CN(C)C(=O)N[C@H](C(=O)N[C@@H](Cc2ccccc2)C[C@H](O)[C@H](Cc2ccccc2)NC(=O)OCc2cccnc2)C(C)C)c1 [Example 314] | 98 to 144 nM | 
COc1ccc(COC(=O)N[C@H](C(=O)N[C@@H](Cc2ccccc2)C[C@H](O)[C@H](Cc2ccccc2)NC(=O)[C@@H](NC(=O)OCc2ccc(OC)nc2)C(C)C)C(C)C)cn1 [Example 315] | 3 to 5 nM | inhibition at 0.0005 µM [1]: […]
CC(C)[C@H](NC(=O)OCc1ccccn1)C(=O)N[C@@H](Cc1ccccc1)[C@@H](O)C[C@H](Cc1ccccc1)NC(=O)OCc1cncnc1 [Example 319, (2S,3S,5S)-2-(N-(N-((2-Pyridinyl)methoxycarbonyl)valinyl)amino)-5-(N-((5-pyrimidinyl)methoxycarbonyl)amino)-1,6-diphenyl-3-hydroxyhexane] | 210 to 290 nM | 
CC(C)[C@H](NC(=O)N(C)Cc1ccccn1)C(=O)N[C@@H](Cc1ccccc1)C[C@H](O)[C@H](Cc1ccccc1)NC(=O)OCc1cncnc1 [Example 320, (2S,3S,5S)-5-(N-(N-((N-Methyl-N-((2-pyridinyl)methyl)amino)carbonyl)valinyl)amino)-2-(N-((5-pyrimidinyl)methoxycarbonyl)amino)-1,6-diphenyl-3-hydroxyhexane] | 400 to 500 nM | 
CC(C)[C@H](NC(=O)OCc1ccccn1)C(=O)N[C@@H](Cc1ccccc1)C[C@H](O)[C@H](Cc1ccccc1)NC(=O)OCc1cncnc1 [Example 321, (2S,3S,5S)-5-(N-(N-((2-Pyridinyl)methoxycarbonyl)valinyl)amino)-2-(N-((5-pyrimidinyl)methoxycarbonyl)amino)-1,6-diphenyl-3-hydroxyhexane] | 140 to 190 nM | inhibition at 0.0005 µM [1]: 64%
Cc1cccc(COC(=O)N[C@H](C(=O)N[C@@H](Cc2ccccc2)[C@@H](O)C[C@H](Cc2ccccc2)NC(=O)OCc2ccoc2)C(C)C)n1 [Example 322B, (2S,3S,5S)-2-(N-(N-(2-(6-Methylpyridinyl)methoxycarbonyl)valinyl)amino)-5-(N-((3-furyl)methoxycarbonyl)amino)-1,6-diphenyl-3-hydroxyhexane] | 86 to 94 nM | 
CC(C)[C@H](NC(=O)OCc1ccc2ccccc2n1)C(=O)N[C@@H](Cc1ccccc1)[C@@H](O)C[C@H](Cc1ccccc1)NC(=O)OCc1cccnc1 [Example 326, (2S,3S,5S)-2-(N-(N-((2-Ouinolinyl)methoxycarbonyl)valinyl)amino)-5-(N-((3-pyridinyl)methoxycarbonyl)amino)-1,6-diphenyl-3-hydroxyhexane] | 53 to 86 nM | inhibition at 0.0005 µM [1]: 66%; CC50 [3]: 27000 nM
CC(C)[C@H](NC(=O)OCc1ccc2ccccc2n1)C(=O)N[C@@H](Cc1ccccc1)C[C@H](O)[C@H](Cc1ccccc1)NC(=O)OCc1cccnc1 [Example 327, (2S,3S,5S)-5-(N-(N-((2-Ouinolinyl)methoxycarbonyl)valinyl)amino)-2-(N-((3-pyridinyl)methoxycarbonyl)amino)-1,6-diphenyl-3-hydroxyhexane] | 34 to 64 nM | inhibition at 0.0005 µM [1]: 69%; CC50 [3]: 84000 nM
O=C(N[C@@H](Cc1ccccc1)C[C@H](O)[C@H](Cc1ccccc1)NC(=O)OCc1ccno1)OCc1ccno1 [Example 334B, (2S,3S,5S)-2,5-Bis-(N-(isoxazol-5-ylmethoxycarbonyl)amino)-1,6-diphenyl-3-hydroxyhexane] | 740 to 1600 nM | inhibition at 0.001 µM [1]: 56%; CC50 [3]: 91000 nM
